In article doi:10.1101/2023.10.20.563248v1 (biorxiv, 2023):

How the values were obtained:
[1] = biological target: MST4 (full-length, NanoLuc fusion) (Homo sapiens, UniProt Q9P289); assay: NanoBRET tracer displacement, HEK293T; format: cell-based; details: intact cells; […] °C, […] h; competitive with tracer
[2] = biological target: MST3 (full-length, NanoLuc fusion) (Homo sapiens, UniProt Q9Y6E0); assay: cell-based
[3] = biological target: MST2 (full-length, NanoLuc fusion) (Homo sapiens, UniProt Q13188); assay: NanoBRET tracer displacement, HEK293T; format: cell-based; details: intact cells; […] °C, […] h; competitive with tracer
Sequence of MST2 (full-length, NanoLuc fusion) (Q13188 whole entry, the tested form may be a part): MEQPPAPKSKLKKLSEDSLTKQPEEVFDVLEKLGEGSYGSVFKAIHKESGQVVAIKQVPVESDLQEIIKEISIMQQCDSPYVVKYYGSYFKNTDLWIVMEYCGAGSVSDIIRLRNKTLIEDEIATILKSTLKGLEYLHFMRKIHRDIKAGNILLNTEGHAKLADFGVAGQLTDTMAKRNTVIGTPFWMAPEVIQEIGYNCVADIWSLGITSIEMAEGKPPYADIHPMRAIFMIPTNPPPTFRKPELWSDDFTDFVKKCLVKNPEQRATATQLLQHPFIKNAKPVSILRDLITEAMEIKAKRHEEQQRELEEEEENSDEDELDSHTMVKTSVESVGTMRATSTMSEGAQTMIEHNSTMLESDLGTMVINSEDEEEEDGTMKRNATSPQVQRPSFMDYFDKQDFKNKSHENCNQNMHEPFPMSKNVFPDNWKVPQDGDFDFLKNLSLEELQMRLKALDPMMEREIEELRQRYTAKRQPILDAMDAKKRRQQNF

[4] = biological target: MST1 (full-length, NanoLuc fusion) (Homo sapiens, UniProt Q13043); assay: NanoBRET tracer displacement, HEK293T; format: cell-based; details: intact cells; […] °C, […] h; competitive with tracer
Sequence of MST1 (full-length, NanoLuc fusion) (Q13043 whole entry, the tested form may be a part): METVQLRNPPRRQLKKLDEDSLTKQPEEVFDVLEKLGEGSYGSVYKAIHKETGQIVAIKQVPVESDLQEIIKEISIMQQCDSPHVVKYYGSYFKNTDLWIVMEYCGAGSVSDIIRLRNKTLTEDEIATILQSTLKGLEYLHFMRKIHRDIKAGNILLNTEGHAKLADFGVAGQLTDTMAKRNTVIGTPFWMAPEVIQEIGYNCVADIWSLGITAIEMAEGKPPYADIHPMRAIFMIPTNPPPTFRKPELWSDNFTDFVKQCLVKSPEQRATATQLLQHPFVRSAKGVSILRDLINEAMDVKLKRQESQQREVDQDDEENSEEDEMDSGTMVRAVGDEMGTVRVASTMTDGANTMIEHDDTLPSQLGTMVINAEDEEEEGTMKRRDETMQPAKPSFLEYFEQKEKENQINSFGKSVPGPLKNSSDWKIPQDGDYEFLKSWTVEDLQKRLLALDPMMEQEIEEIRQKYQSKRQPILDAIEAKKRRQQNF

Sequence of MST3 (full-length, NanoLuc fusion) (Q9Y6E0 whole entry, the tested form may be a part): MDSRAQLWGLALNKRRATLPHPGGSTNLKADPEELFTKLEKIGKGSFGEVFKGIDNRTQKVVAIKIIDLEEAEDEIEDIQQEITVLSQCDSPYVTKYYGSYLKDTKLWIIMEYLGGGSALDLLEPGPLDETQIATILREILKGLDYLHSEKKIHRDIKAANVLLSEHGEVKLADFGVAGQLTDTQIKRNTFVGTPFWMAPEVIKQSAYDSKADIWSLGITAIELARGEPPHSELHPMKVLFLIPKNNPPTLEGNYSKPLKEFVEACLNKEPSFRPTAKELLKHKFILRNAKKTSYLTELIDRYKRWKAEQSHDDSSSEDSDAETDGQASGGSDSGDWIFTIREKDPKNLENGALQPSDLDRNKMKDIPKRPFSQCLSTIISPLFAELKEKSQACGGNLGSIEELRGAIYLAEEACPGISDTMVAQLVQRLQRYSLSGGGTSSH
Sequence of MST4 (full-length, NanoLuc fusion) (Q9P289 whole entry, the tested form may be a part): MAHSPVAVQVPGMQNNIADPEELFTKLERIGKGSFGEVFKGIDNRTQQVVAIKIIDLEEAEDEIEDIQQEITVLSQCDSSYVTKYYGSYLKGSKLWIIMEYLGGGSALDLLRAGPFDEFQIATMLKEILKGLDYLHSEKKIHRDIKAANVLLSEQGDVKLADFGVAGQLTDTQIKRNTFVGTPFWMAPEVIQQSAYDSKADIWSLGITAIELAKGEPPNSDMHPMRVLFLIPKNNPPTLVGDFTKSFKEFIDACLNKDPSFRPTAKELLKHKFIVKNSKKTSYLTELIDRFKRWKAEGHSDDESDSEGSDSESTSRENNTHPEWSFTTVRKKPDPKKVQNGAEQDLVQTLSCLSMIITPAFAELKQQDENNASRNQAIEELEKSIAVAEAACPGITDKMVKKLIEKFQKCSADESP

EC50 [1] [nM] | EC50 [2] [nM] | Structure (SMILES) | EC50 [3] [nM] | EC50 [4] [nM]
2400 | 1800 | O=C1NCCCCCCNc2nc(c3ccccc3n2)Nc2cc1[nH]n2 [21e, (Z)-3^1H-2,5,12-triaza-1(4,2)-quinazolina-3(3,5)-pyrazolacyclododecaphan-4-one] | – | –
– | – | N#CCc1ccc(Nc2nccc(Nc3cc(C4CC4)[nH]n3)n2)cc1 [compound 1, 1] | 110 | 200
